Data published in PubChem BioAssay AID2060626 (Molecular Pharmacology Branch, DTP, NCI, 2025).

Tested on: 168753-222-R-J1-PDC complex spheroid viability
Experiment: Anticancer human tumor 168753-222-R-J1-PDC patient-derived bladder carcinoma cell line growth inhibition [CLK]
Conditions: second compound 1 µM; first compound 0.1 µM; active compounds read low
Procedure, shortened: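 Patient-derived tumor cells grown as complex spheroids with HUVEC endothelial cells and mesenchymal stem cells, treated with drug combinations. Concentrations descend in half-log steps from near clinical Cmax, or from 10 microM if Cmax unknown.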
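Also: luminescence signal used as surrogate for viable cell amount; viability measured after seven days of drug exposure; 100% = DMSO vehicle control wells.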

SMILES	viability, T/C [%]
CCc1c2c(nc3ccc(O)cc13)-c1cc3c(c(=O)n1C2)COC(=O)[C@]3(O)CC + CNC(=O)c1ccc(Nc2nc(OC3CCCC3)c3c(-c4ccc5nc(C)oc5c4)c[nH]c3n2)c(OC)c1	14.1
Cn1ncnc1[C@H]1c2n[nH]c(=O)c3cc(F)cc(c23)N[C@@H]1c1ccc(F)cc1 + CNC(=O)c1ccc(Nc2nc(OC3CCCC3)c3c(-c4ccc5nc(C)oc5c4)c[nH]c3n2)c(OC)c1	42
Nc1ccn(C2OC(CO)C(O)C2(F)F)c(=O)n1 (stereo unspecified) + CNC(=O)c1ccc(Nc2nc(OC3CCCC3)c3c(-c4ccc5nc(C)oc5c4)c[nH]c3n2)c(OC)c1	18.9
O=C(c1cc(Cc2n[nH]c(=O)c3ccccc23)ccc1F)N1CCN(C(=O)C2CC2)CC1 + CNC(=O)c1ccc(Nc2nc(OC3CCCC3)c3c(-c4ccc5nc(C)oc5c4)c[nH]c3n2)c(OC)c1	41
O=c1[nH]cc(F)c(=O)[nH]1 + CNC(=O)c1ccc(Nc2nc(OC3CCCC3)c3c(-c4ccc5nc(C)oc5c4)c[nH]c3n2)c(OC)c1	36

Same assay, conditions: second compound 1 µM; first compound 0.316 µM; active compounds read low

SMILES	viability, T/C [%]
CCc1c2c(nc3ccc(O)cc13)-c1cc3c(c(=O)n1C2)COC(=O)[C@]3(O)CC + CNC(=O)c1ccc(Nc2nc(OC3CCCC3)c3c(-c4ccc5nc(C)oc5c4)c[nH]c3n2)c(OC)c1	14.8
Nc1ccn(C2OC(CO)C(O)C2(F)F)c(=O)n1 (stereo unspecified) + CNC(=O)c1ccc(Nc2nc(OC3CCCC3)c3c(-c4ccc5nc(C)oc5c4)c[nH]c3n2)c(OC)c1	17.9
O=C(c1cc(Cc2n[nH]c(=O)c3ccccc23)ccc1F)N1CCN(C(=O)C2CC2)CC1 + CNC(=O)c1ccc(Nc2nc(OC3CCCC3)c3c(-c4ccc5nc(C)oc5c4)c[nH]c3n2)c(OC)c1	37.3
O=c1[nH]cc(F)c(=O)[nH]1 + CNC(=O)c1ccc(Nc2nc(OC3CCCC3)c3c(-c4ccc5nc(C)oc5c4)c[nH]c3n2)c(OC)c1	27.9

Same assay, conditions: second compound 1 µM; first compound 1 µM; active compounds read low

SMILES	viability, T/C [%]
CCc1c2c(nc3ccc(O)cc13)-c1cc3c(c(=O)n1C2)COC(=O)[C@]3(O)CC + CNC(=O)c1ccc(Nc2nc(OC3CCCC3)c3c(-c4ccc5nc(C)oc5c4)c[nH]c3n2)c(OC)c1	11.5
Nc1ccn(C2OC(CO)C(O)C2(F)F)c(=O)n1 (stereo unspecified) + CNC(=O)c1ccc(Nc2nc(OC3CCCC3)c3c(-c4ccc5nc(C)oc5c4)c[nH]c3n2)c(OC)c1	16.4
O=C(c1cc(Cc2n[nH]c(=O)c3ccccc23)ccc1F)N1CCN(C(=O)C2CC2)CC1 + CNC(=O)c1ccc(Nc2nc(OC3CCCC3)c3c(-c4ccc5nc(C)oc5c4)c[nH]c3n2)c(OC)c1	39.7
O=c1[nH]cc(F)c(=O)[nH]1 + CNC(=O)c1ccc(Nc2nc(OC3CCCC3)c3c(-c4ccc5nc(C)oc5c4)c[nH]c3n2)c(OC)c1	28.2

Same assay, conditions: second compound 1 µM; first compound 3.16 µM; active compounds read low

SMILES	viability, T/C [%]
Nc1ccn(C2OC(CO)C(O)C2(F)F)c(=O)n1 (stereo unspecified) + CNC(=O)c1ccc(Nc2nc(OC3CCCC3)c3c(-c4ccc5nc(C)oc5c4)c[nH]c3n2)c(OC)c1	16.9
O=C(c1cc(Cc2n[nH]c(=O)c3ccccc23)ccc1F)N1CCN(C(=O)C2CC2)CC1 + CNC(=O)c1ccc(Nc2nc(OC3CCCC3)c3c(-c4ccc5nc(C)oc5c4)c[nH]c3n2)c(OC)c1	44.4
O=c1[nH]cc(F)c(=O)[nH]1 + CNC(=O)c1ccc(Nc2nc(OC3CCCC3)c3c(-c4ccc5nc(C)oc5c4)c[nH]c3n2)c(OC)c1	31.7

Same assay, conditions: second compound 1 µM; first compound 10 µM; active compounds read low

SMILES	viability, T/C [%]
Nc1ccn(C2OC(CO)C(O)C2(F)F)c(=O)n1 (stereo unspecified) + CNC(=O)c1ccc(Nc2nc(OC3CCCC3)c3c(-c4ccc5nc(C)oc5c4)c[nH]c3n2)c(OC)c1	17.4
O=C(c1cc(Cc2n[nH]c(=O)c3ccccc23)ccc1F)N1CCN(C(=O)C2CC2)CC1 + CNC(=O)c1ccc(Nc2nc(OC3CCCC3)c3c(-c4ccc5nc(C)oc5c4)c[nH]c3n2)c(OC)c1	38.4
O=c1[nH]cc(F)c(=O)[nH]1 + CNC(=O)c1ccc(Nc2nc(OC3CCCC3)c3c(-c4ccc5nc(C)oc5c4)c[nH]c3n2)c(OC)c1	27.7

Same assay, conditions: second compound 3.16 µM; first compound 0.000316 µM; active compounds read low

SMILES	viability, T/C [%]
Cn1ncnc1[C@H]1c2n[nH]c(=O)c3cc(F)cc(c23)N[C@@H]1c1ccc(F)cc1 + CNC(=O)c1ccc(Nc2nc(OC3CCCC3)c3c(-c4ccc5nc(C)oc5c4)c[nH]c3n2)c(OC)c1	22.6

Same assay, conditions: second compound 3.16 µM; first compound 0.001 µM; active compounds read low

SMILES	viability, T/C [%]
Cn1ncnc1[C@H]1c2n[nH]c(=O)c3cc(F)cc(c23)N[C@@H]1c1ccc(F)cc1 + CNC(=O)c1ccc(Nc2nc(OC3CCCC3)c3c(-c4ccc5nc(C)oc5c4)c[nH]c3n2)c(OC)c1	18.6

Same assay, conditions: second compound 3.16 µM; first compound 0.00316 µM; active compounds read low

SMILES	viability, T/C [%]
CCc1c2c(nc3ccc(O)cc13)-c1cc3c(c(=O)n1C2)COC(=O)[C@]3(O)CC + CNC(=O)c1ccc(Nc2nc(OC3CCCC3)c3c(-c4ccc5nc(C)oc5c4)c[nH]c3n2)c(OC)c1	18.8
Cn1ncnc1[C@H]1c2n[nH]c(=O)c3cc(F)cc(c23)N[C@@H]1c1ccc(F)cc1 + CNC(=O)c1ccc(Nc2nc(OC3CCCC3)c3c(-c4ccc5nc(C)oc5c4)c[nH]c3n2)c(OC)c1	19.6

Same assay, conditions: second compound 3.16 µM; first compound 0.01 µM; active compounds read low

SMILES	viability, T/C [%]
CCc1c2c(nc3ccc(O)cc13)-c1cc3c(c(=O)n1C2)COC(=O)[C@]3(O)CC + CNC(=O)c1ccc(Nc2nc(OC3CCCC3)c3c(-c4ccc5nc(C)oc5c4)c[nH]c3n2)c(OC)c1	18.2
Cn1ncnc1[C@H]1c2n[nH]c(=O)c3cc(F)cc(c23)N[C@@H]1c1ccc(F)cc1 + CNC(=O)c1ccc(Nc2nc(OC3CCCC3)c3c(-c4ccc5nc(C)oc5c4)c[nH]c3n2)c(OC)c1	18.7

Same assay, conditions: second compound 3.16 µM; first compound 0.0316 µM; active compounds read low

SMILES	viability, T/C [%]
CCc1c2c(nc3ccc(O)cc13)-c1cc3c(c(=O)n1C2)COC(=O)[C@]3(O)CC + CNC(=O)c1ccc(Nc2nc(OC3CCCC3)c3c(-c4ccc5nc(C)oc5c4)c[nH]c3n2)c(OC)c1	13
